≈ marks a conversion by molar mass, not a printed value. Where two headings read alike, the source gives them in different places.
Tests used:
[1] = test system: Bacillus thuringensis; assay: MIC by agar plate dilution method; format: cell-based; details: 24 h, 37° C., read-out: Minimum inhibitory concentration
Protocol: (§1) The test organisms were incubated by agar plate dilution method at 37° C. for 24 hours, after which their growth was observed. The test organisms were incubated on an NB medium (product of Eiken Kagaku) at 37° C. overnight, and each culture obtained was diluted 10^3 - to 10^4 -fold and stamped on an agar plate. The following agar plate media were used:
(§2) NA: nutrient agar (product of Eiken Kagaku)
(§3) NA+G6P: glucose-6-phosphoric acid (50 μg/ml) plus nutrient agar
(§4) Anti-3A: antibiotic medium No. 3 agar (product of Difco)
(§5) MHA: Mueller Hinton Agar (product of Eiken Kagaku)

[2] = test system: Pseudomonas aeruginosa J-272; assay: MIC by agar plate dilution method; format: cell-based; details: 37° C., 24 hours
Protocol: as §1, §2, §3, §4, §5

[3] = test system: Pseudomonas aeruginosa M57740; assay: MIC by agar plate dilution method; format: cell-based
Protocol: as §1, §2, §3, §4, §5

[4] = test system: Salmonella enteritidis T-1; assay: MIC by agar plate dilution method; format: cell-based; details: Salmonella enterica, 24 h, 37° C., read-out: Minimum inhibitory concentration
Protocol: as §1, §2, §3, §4, §5

[5] = test system: Salmonella paratyphi A; assay: MIC by agar plate dilution method; format: cell-based; details: Salmonella enterica, 24 h
Protocol: as §1, §2, §3, §4, §5

[6] = test system: Sarcina lutea; assay: MIC by agar plate dilution method; format: cell-based; details: Micrococcus luteus
Protocol: as §1, §2, §3, §4, §5

[7] = test system: Shigella flexneri 2b; assay: MIC by agar plate dilution method; format: cell-based; details: 24 h, 37° C., read-out: Minimum inhibitory concentration
Protocol: as §1, §2, §3, §4, §5

[8] = test system: Shigella sonnei; assay: MIC by agar plate dilution method; format: cell-based; details: 24 h, 37° C., read-out: Minimum inhibitory concentration
Protocol: as §1, §2, §3, §4, §5

[9] = test system: Staphylococcus aureus 209P; assay: MIC by agar plate dilution method; format: cell-based; details: 24 h, 37° C., read-out: Minimum inhibitory concentration
Protocol: as §1, §2, §3, §4, §5

[10] = test system: Staphylococcus aureus JU-5; assay: MIC by agar plate dilution method; format: cell-based; details: JU5, 24 h, 37° C., read-out: Minimum inhibitory concentration
Protocol: as §1, §2, §3, §4, §5

[11] = acute toxicity, single administration; details: mouse, in vivo, pH 7, read-out: median lethal dose (LD50)
Protocol: The crystal of the antibiotic No. 2-200 obtained in Example 4 was floated in sterile distilled water, mixed with 5% caustic soda to adjust the pH to 7.0, and dissolved to make a solution. The solution was adminstered to 5-week-old ddY male mice to examine its actuate toxicity as well as delayed toxicity. During 10 days that followed the administration, the weight of each mouse, its food intake and water intake were measured.

[12] = Solubility in solvents; format: physicochemical
[13] = test system: gram negative bacteria; assay: antibacterial activity (general statement); format: cell-based
[14] = test system: bacteria of genus Salmonella; assay: antibacterial activity (general statement); format: cell-based
[15] = test system: bacteria of genus Serratia; assay: antibacterial activity (general statement); format: cell-based
[16] = test system: mammals; details: in vivo

C=CC(C)=CC1(C)SC(=O)C(C)=C1O (single isomer, unassigned) [No. 2-200]
MIC ([1]; Anti-3A): 50 µg/mL (≈ 238 µM)
MIC ([1]; MHA): 50 µg/mL (≈ 238 µM)
MIC ([1]; NA + G6P (50 μg/ml)): 25 µg/mL
MIC ([1]; NA): 50 µg/mL (≈ 238 µM)
Minimum inhibitory concentration ([2]; Anti-3A): > 400 µg/mL
Minimum inhibitory concentration ([2]; MHA): > 400 µg/mL
Minimum inhibitory concentration ([2]; NA + G6P (50 μg/ml)): > 400 µg/mL
MIC ([2]; Pseudomonas aeruginosa, J272, NA, read-out: Minimum inhibitory concentration): > 400 µg/mL
MIC ([3]; M57740, 24 h, read-out: Minimum inhibitory concentration, Anti-3A, 37° C.): 1.56 µg/mL (≈ 7.42 µM)
MIC ([3]; M57740, 24 h, read-out: Minimum inhibitory concentration, NA + G6P (50 μg/ml), 37° C.): 1.56 µg/mL
MIC ([3]; M57740, 24 h, read-out: Minimum inhibitory concentration, NA, 37° C.): 1.56 µg/mL (≈ 7.42 µM)
MIC ([3]; M57740, MHA, 37° C., 24 hours, read-out: Minimum inhibitory concentration): ≤ 0.78 µg/mL
MIC ([4]; Anti-3A): 3.12 µg/mL (≈ 14.8 µM)
MIC ([4]; MHA): 3.12 µg/mL (≈ 14.8 µM)
MIC ([4]; NA + G6P (50 μg/ml)): 6.25 µg/mL
MIC ([4]; NA): 6.25 µg/mL (≈ 29.7 µM)
MIC ([5]; read-out: Minimum inhibitory concentration, Anti-3A, 37° C.): 50 µg/mL (≈ 238 µM)
MIC ([5]; read-out: Minimum inhibitory concentration, MHA, 37° C.): 3.12 µg/mL (≈ 14.8 µM)
MIC ([5]; read-out: Minimum inhibitory concentration, NA + G6P (50 μg/ml), 37° C.): 50 µg/mL
MIC ([5]; read-out: Minimum inhibitory concentration, NA, 37° C.): 50 µg/mL (≈ 238 µM)
MIC ([6]; 24 h, read-out: Minimum inhibitory concentration, Anti-3A, 37° C.): 12.5 µg/mL (≈ 59.4 µM)
MIC ([6]; 24 h, read-out: Minimum inhibitory concentration, NA + G6P (50 μg/ml), 37° C.): 12.5 µg/mL
MIC ([6]; 24 h, read-out: Minimum inhibitory concentration, NA, 37° C.): 12.5 µg/mL (≈ 59.4 µM)
MIC ([6]; MHA, 37° C., 24 hours, read-out: Minimum inhibitory concentration): 25 µg/mL (≈ 119 µM)
MIC ([7]; Anti-3A): 3.12 µg/mL (≈ 14.8 µM)
MIC ([7]; MHA): 1.56 µg/mL (≈ 7.42 µM)
MIC ([7]; NA + G6P (50 μg/ml)): 6.25 µg/mL
MIC ([7]; NA): 6.25 µg/mL (≈ 29.7 µM)
MIC ([8]; Anti-3A): 100 µg/mL (≈ 476 µM)
MIC ([8]; MHA): 50 µg/mL (≈ 238 µM)
MIC ([8]; NA + G6P (50 μg/ml)): 100 µg/mL
MIC ([8]; NA): 100 µg/mL (≈ 476 µM)
MIC ([9]; Anti-3A): 25 µg/mL (≈ 119 µM)
MIC ([9]; MHA): 50 µg/mL (≈ 238 µM)
MIC ([9]; NA + G6P (50 μg/ml)): ≥ 50 µg/mL
MIC ([9]; NA): > 50 µg/mL
MIC ([10]; Anti-3A): > 400 µg/mL
MIC ([10]; MHA): 100 µg/mL (≈ 476 µM)
MIC ([10]; NA + G6P (50 μg/ml)): ≥ 400 µg/mL
MIC ([10]; NA): > 400 µg/mL
LD50 at 240 h ([11]; ip): 810 mg/kg
LD50 at 240 h ([11]; iv): 705 mg/kg
solubility ([12]; acetone): easily soluble
solubility ([12]; alkaline water): easily soluble
solubility ([12]; ethyl acetate): easily soluble
solubility ([12]; methanol): easily soluble
solubility ([12]; neutral to acidic water): slightly soluble
antibacterial activity to gram negative bacteria [13]: exhibits antibacterial activity
antibacterial activity to bacteria of genus Salmonella [14]: particularly strong antibacterial activity
antibacterial activity to bacteria of genus Serratia [15]: particularly strong antibacterial activity
delayed toxicity (general statement) [16]: no delayed toxicity

Reference: patent US4214091A, “Antibiotic No. 2-200 and process for producing thereof” (Chugai Seiyaku Kabushiki Kaisha, priority 1977, dated 1980)
